The values that follow come from US7262185B2, “Benzazepine derivative, process for producing the same, and use” (Takeda Chemical Industries Ltd., priority 2001, dated 2007).

One may read the melting point as the temperature, or range, at which the solid turns liquid.

Data set [1] addresses T1, human CCR5 chemokine receptor (Homo sapiens, UniProt P51681).
T1 construct: expressed in transfected cells
Description: Inhibition of [125I]-RANTES binding to CCR5/CHO cells (CCR5 antagonistic activity). Conditions: test compound 1 μM, [125I]-RANTES as ligand, room temperature; for inhibition at 1 µM: 40 min, read-out: Binding Inhibitory Ratio (%). The method, then:
Cloning of CCR5 gene from human spleen cDNA was conducted using the PCR method. Using spleen cDNA (0.5 ng) (TOYOBO CO., LTD, QUICK-Clone cDNA) as a template, PCR was performed in a DNA Thermal Cycler 480 (manufactured by Perkin Elmer) (reaction conditions: 30 cycles of 95° C. for 1 minute, 60° C. for 1 minute, and 75° C. for 5 minutes) by adding primer sets, SEQ. ID NO: 1 (sequence length: 34; sequence type: nucleic acid; chain number: single strand; topology: linear; kind of sequence: other nucleic acid synthetic. DNA) described in Experimental. Example (1) of WO 99/32100, and SEQ ID NO: 2 (sequence length: 34; sequence type: nucleic acid; chain number: single strand; topology: linear; kind of sequence: other nucleic acid synthetic. DNA) described in Experimental. Example (1) of WO 99/32100, (25 pmol, respectively), which were prepared referring to the nucleotide sequence of CCR5 gene, as reported by Samson et al. (Biochemistry 35 (11), 3362-3367 (1996)) and by using TaKaRa. EX Taq (Takara Shuzo). The resultant. PCR product was subjected to agarose gel electrophoresis to collect an approximately 1.0 kb. DNA fragment, which was subjected to an Original TA Cloning Kit (Funakoshi Co., Ltd.) to carry out cloning of CCR5 gene.
The plasmid obtained above was digested with restriction enzymes XbaI (Takara Shuzo Co., Ltd.) and BamHI (Takara Shuzo Co., Ltd.), and then subjected to agarose gel electrophoresis to collect DNA fragment of about 1.0 kb. The DNA fragment and plasmid pcDNA 3.1 (Funakoshi. Co., Ltd.) for expression in animal cells, which was previously digested with XbaI and BamHI, were mixed and ligated by DNA Ligation Kit Ver. 2 (Takara Shuzo Co., Ltd.). The resulting plasmid was subjected to transformation into. E. coli JM109 competent cells (Takara Shuzo Co., Ltd.) to obtain plasmid pCKR5.
CHO-K1 cells were cultured in a 750-ml tissue culture flask (Becton, Dickinson and Company.) using. Ham F12 medium (NIHON PHARMACEUTICAL CO., LTD.) containing 10% fetal bovine serum (Lifetech Oriental) and were collected using 0.5 g/L trypsin-0.2 g/L EDTA (Lifetech Oriental). The cells were washed with PBS (Lifetech Oriental), centrifuged (1000 rpm, 5 minutes), and suspended in PBS. The DNA was introduced into the cells using a Gene Pulser (Bio-Rad Laboratories, Inc.) under the following conditions. Namely, 8×10^6 cells and 10 μg of plasmid pCKR5 for expression of human CCR5 were placed in a cuvette having a 0.4-cm gap, and electroporation was carried out with a voltage 0.25 kV and 960 μF of capacitance. Then, the cells were transferred into Ham's. F12 medium containing 10% fetal bovine serum, and incubated for 24 hours. The cells were collected, centrifuged, and suspended in Ham' F12 medium containing 10% fetal bovine serum and Geneticin (Lifetech Oriental) at a concentration of 500 μg/ml. The suspension of cells was diluted to a concentration of 10^4 cells/ml, and was inoculated onto 96-well plate (Becton Dickinson), to obtain Geneticin-resistant strain.
Then, resulting. Geneticin-resistant strain were cultured on 96-well plate (Becton Dickinson), and CCR5-expressing cells were selected from the resistant cells. Namely, in an assay buffer, (Ham's F12 medium containing 0.5% BSA, and 20 mM HEPES (Wako Pure Chemical Ind., pH 7.2)) to which was added […][125I]-RANTES (Amersham) as a ligand, the cells were subjected to a binding reaction at room temperature for 40 minutes. Wells containing the cells were washed with ice-cooled PBS, and 50 μl/well of 1M NaOH was added and stirred. The cells to which the ligand was bound specifically, i.e., CCR5/CHO cells, were selected by measurement of radioactivity using a […].
The CCR5/CHO cells were inoculated onto 96-well microplate at a concentration of 5×10^4 cells/well, and were cultured for 24 hours. After removal of the medium by aspiration, to each well was added an assay buffer containing a test compound (1 μM), and [125I]/RANTES (Amersham) used as a ligand at a concentration of […]. […]

T1 sequence (P51681 whole entry): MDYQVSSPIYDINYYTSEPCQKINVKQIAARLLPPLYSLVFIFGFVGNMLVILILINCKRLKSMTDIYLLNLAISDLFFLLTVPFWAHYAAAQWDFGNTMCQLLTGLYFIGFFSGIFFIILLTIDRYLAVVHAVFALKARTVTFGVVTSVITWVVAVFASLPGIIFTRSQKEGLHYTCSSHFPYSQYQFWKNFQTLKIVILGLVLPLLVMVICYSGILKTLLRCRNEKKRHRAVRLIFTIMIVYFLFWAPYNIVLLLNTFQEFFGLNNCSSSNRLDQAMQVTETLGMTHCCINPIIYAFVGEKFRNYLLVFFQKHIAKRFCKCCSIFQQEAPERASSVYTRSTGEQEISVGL

In turn, `CCCCOCCOc1ccc(-c2ccc3c(c2)C=C(C(=O)Nc2ccc(SCc4nncn4CCC)c(C)c2)CCN3CC(C)C)cc1` [Compound 40, 7-[4-(2-butoxyethoxy)phenyl]-1-isobutyl-N-[3-methyl-4-[(4-propyl-4H-1,2,4-triazol-3-yl)methylthio]phenyl]-2,3-dihydro-1H-1-benzazepine-4-carboxamide] displayed a melting point of 104 to 107 °C. For the same compound, the inhibition at 1 µM in data set [1] came out at 90%.

Consider `CCCCOCCOc1ccc(-c2ccc3c(c2)C=C(C(=O)Nc2ccc(CCCn4cnnc4)cc2)CCN3CC(C)C)cc1` [Compound 63, 7-[4-(2-butoxyethoxy)phenyl]-1-isobutyl-N-[4-[3-(4H-1,2,4-triazol-4-yl)propyl]phenyl]-2,3-dihydro-1H-1-benzazepine-4-carboxamide], for which the melting point fell in the range of 165 to 167 °C. Further, the inhibition at 1 µM in data set [1] was 96%. For `CCCCOCCOc1ccc(-c2ccc3c(c2)C=C(C(=O)Nc2ccc([C@H](O)c4cccc[n+]4[O-])cc2)CCN3Cc2cnn(C)c2)cc1` [Compound 87, 7-[4-(2-butoxyethoxy)phenyl]-N-[4-[(S)-hydroxy(1-oxidopyridin-2-yl)methyl]phenyl]-1-(1-methylpyrazol-4-ylmethyl)-2,3-dihydro-1H-1-benzazepine-4-carboxamide], in that order: 94 to 97 °C and 89%. On the same counts, the results for `CCCCOCCOc1ccc(-c2ccc3c(c2)C=C(C(=O)Nc2ccc([S+]([O-])Cc4nncn4CC)cc2)CCN3CC(C)C)cc1` (stereo not shown) [Compound 135, 7-[4-(2-butoxyethoxy)phenyl]-N-[4-(4-ethyl-4H-1,2,4-triazol-3-ylmethylsulfinyl)phenyl]-1-isobutyl-2,3-dihydro-1H-benzazepine-4-carboxamide] are 102 to 104 °C and 100%. For `CCCCOCCOc1ccc(-c2ccc3c(c2)C=C(C(=O)Nc2ccc(SCc4nccn4CCCC(N)=O)cc2)CCN3CC(C)C)cc1` [Compound 415, N-[4-[[[1-(4-amino-4-oxobutyl)-1H-imidazol-2-yl]methyl]thio]phenyl]-7-[4-(2-butoxyethoxy)phenyl]-1-isobutyl-2,3-dihydro-1H-1-benzazepine-4-carboxamide], in that order: 142 to 143 °C and 98%. On to `CCCCOCCOc1ccc(-c2ccc3c(c2)C=C(C(=O)Nc2ccc([S+]([O-])Cc4nccn4CCCC(=O)NC)cc2)CCN3CC(C)C)cc1` (stereo not shown) [Compound 424, 7-[4-(2-butoxyethoxy)phenyl]-N-[4-[[[1-[4-(methylamino)-4-oxobutyl]-1H-imidazol-2-yl]methyl]sulfinyl]phenyl]-1-isobutyl-2,3-dihydro-1H-1-benzazepine-4-carboxamide], for which the melting point lay within 159 to 161 °C. In data set [1], the inhibition at 1 µM came out at 96%. For `C#CCn1cncc1C[S+]([O-])c1ccc(NC(=O)C2=Cc3cc(-c4ccc(OCCOCCCC)cc4)ccc3N(CC(C)C)CC2)cc1` (stereo not shown) [Compound 443, 7-[4-(2-butoxyethoxy)phenyl]-1-isobutyl-N-[4-[[(1-(2-propin-1-yl)imidazol-5-yl)methyl]sulfinyl]phenyl]-2,3-dihydro-1H-1-benzazepine-4-carboxamide], in data set [1] (40 minutes), the “Binding Inhibitory Ratio (%)” value is listed as 100%.
